# Reference: patent publication US20080287430A1, “Furan Compounds Useful As Ep1 Receptor Antagonists” (priority 2005, published 2008)
# Where a name gives a salt, the structure may show the parent alone.
# Target: T1, human EP1 receptor (Homo sapiens, UniProt P34995)
# T1 construct: expressed in transfected cells; host or cells: CHO-K1
# T1 sequence (P34995 1-402): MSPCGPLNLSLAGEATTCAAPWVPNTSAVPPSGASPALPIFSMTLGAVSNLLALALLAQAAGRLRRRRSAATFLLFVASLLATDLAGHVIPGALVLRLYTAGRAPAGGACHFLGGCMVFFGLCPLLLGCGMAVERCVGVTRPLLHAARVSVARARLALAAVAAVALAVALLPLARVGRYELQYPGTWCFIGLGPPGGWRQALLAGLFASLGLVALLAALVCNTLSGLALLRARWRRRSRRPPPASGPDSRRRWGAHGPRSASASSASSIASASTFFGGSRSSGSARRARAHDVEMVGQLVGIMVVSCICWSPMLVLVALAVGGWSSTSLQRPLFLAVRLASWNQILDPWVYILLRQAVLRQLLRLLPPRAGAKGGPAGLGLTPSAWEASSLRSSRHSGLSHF
# Test: human EP1 calcium mobilisation assay
# Format: cell-based
# Details: human EP1, PGE2-induced calcium mobilisation in CHO-K1 cells; free bases or sodium salts; averages of a number of experiments; read-out: functional pKi value (converted)
# Method: Briefly, the antagonist properties of compounds are assessed by their ability to inhibit the mobilisation of intracellular calcium ([Ca^2+]i) in response to activation of EP1 or EP3 receptors by the natural agonist hormone prostaglandin E2 (PGE2). Increasing concentrations of antagonist reduce the amount of calcium that a given concentration of PGE2 can mobilise. The net effect is to displace the PGE2 concentration-effect curve to higher concentrations of PGE2. The amount of calcium produced is assessed using a calcium-sensitive fluorescent dye such as Fluo-4, AM and a suitable instrument such as a Fluorimetric Imaging Plate Reader (FLIPR). Increasing amounts of [Ca^2+]i produced by receptor activation increase the amount of fluorescence produced by the dye and give rise to an increasing signal. The signal may be detected using the FLIPR instrument and the data generated may be analysed with suitable curve-fitting software.
# The human EP1 or EP3 calcium mobilisation assay (hereafter referred to as ‘the calcium assay’) utilises Chinese hamster ovary-K1(CHO-K1) cells into which a stable (pCIN; BioTechniques 20 (1996): 102-110) vector containing either EP1 or EP3 cDNA has previously been transfected. Cells are cultured in suitable flasks containing culture medium such as DMEM:F-12 supplemented with 10% v/v foetal calf serum, 2 mM L-glutamine, 0.25 mg/ml geneticin, 100 μM flurbiprofen and 10 μg/ml puromycin.
# For assay, cells are harvested using a proprietary reagent that dislodges cells such as Versene. Cells are re-suspended in a suitable quantity of fresh culture media for introduction into a 384-well plate. Following incubation for 24 hours at 37° C. the culture media is replaced with a medium containing Fluo-4 and the detergent pluronic acid, and a further incubation takes place. Concentrations of compounds are then added to the plate in order to construct concentration-effect curves. This may be performed on the FLIPR in order to assess the agonist properties of the compounds. Concentrations of PGE2 are then added to the plate in order to assess the antagonist properties of the compounds.
# The data so generated may be analysed by means of a computerised curve-fitting routine. The concentration of compound that elicits a half-maximal inhibition of the calcium mobilisation induced by PGE2 (pIC50) may then be estimated.
row,Ki,Compound
1,< 1 µM,"O=C(Nc1c(F)cccc1F)c1ccc(Cc2cc(Cl)ccc2OC2CCCC2)o1 [Example 95, 5-{[5-Chloro-2-(cyclopentyloxy)phenyl]-methyl}-N-(2,6-difluorophenyl)-2-furancarboxamide]"
2,< 1 µM,"CC(C)COc1ccc(Cl)cc1Cc1ccc(C(=O)NCc2cccc3ccccc23)o1 [Example 47, 5-({5-Chloro-2-[(2-methylpropyl)oxy]phenyl}methyl)-N-(1-naphthalenylmethyl)-2-furancarboxamide]"
3,> 1 µM,"O=C(Nc1ccccc1-c1ccccc1)c1ccc(Cc2cc(Cl)ccc2OCc2ccccc2)o1 [Example 75, N-2-biphenylyl-5-({5-chloro-2-[(phenylmethyl)oxy]-phenyl}methyl)-2-furancarboxamide]"
4,< 1 µM,"O=C(Nc1ccccc1Cl)c1ccc(Cc2cc(Cl)ccc2OCc2ccccc2)o1 [Example 72, N-(2-chlorophenyl)-5-({5-chloro-2-[(phenylmethyl)oxy]-phenyl}methyl)-2-furancarboxamide]"
5,< 1 µM,"CCNCc1ccc2nc(-c3ccc(Cc4cc(Cl)ccc4OCC(C)C)o3)[nH]c2c1 [Example 154, N-({2-[5-({5-Chloro-2-[(2-methylpropyl)oxy]-phenyl}methyl)-2-furanyl]-1H-benzimidazol-5-yl}methyl)ethanaminedihydrochloride]"
6,< 1 µM,"O=C(NCc1ccccc1)c1ccc(Cc2cc(Cl)ccc2OCc2ccccc2)o1 [Example 48, 5-({5-Chloro-2-[(phenylmethyl)oxy]phenyl}methyl)-N-(phenylmethyl)-2-furancarboxamide]"
7,< 1 µM,"O=C(Nc1c(F)cccc1F)c1ccc(Cc2cc(Cl)ccc2OCc2ccccn2)o1 [Example 91, 5-({5-Chloro-2-[(2-pyridinylmethyl)oxy]phenyl}methyl)-N-(2,6-difluorophenyl)-2-furancarboxamide]"
8,< 1 µM,"CC(C)COc1ccc(Cl)cc1Cc1ccc(-c2nc3cnc4ccccc4c3[nH]2)o1 [Example 118, 2-[5-({5-Chloro-2-[(2-methylpropyl)oxy]phenyl}-methyl)-2-furanyl]-1H-imidazo[4,5-c]quinoline]"
9,< 1 µM,CC(C)COc1ccc(Cl)cc1Cc1ccc(-c2cc[nH]n2)o1 [Example 168]
10,< 1 µM,"O=C(Nc1c(F)cccc1F)c1ccc(Cc2cc(Cl)ccc2OCc2c(F)cccc2F)o1 [Example 85, 5-[(5-Chloro-2-{[(2,6-difluorophenyl)methyl]oxy}-phenyl)methyl]-N-(2,6-difluorophenyl)-2-furancarboxamide]"
11,≤ 0.01 µM,"O=C(Nc1c(F)cccc1F)c1ccc(Cc2cc(Cl)ccc2OCc2ccccc2)o1 [Example 79, 5-({5-Chloro-2-[(phenylmethyl)oxy]-phenyl}methyl)-N-(2,6-difluorophenyl)-2-furancarboxamide]"
12,< 1 µM,"CC(C)COc1ccc(Cl)cc1Cc1ccc(-c2nc3cc(CCN4CCCC4)ccc3[nH]2)o1 [Example 161, 2-[5-({5-Chloro-2-[(2-methylpropyl)oxy]-phenyl}methyl)-2-furanyl]-5-[2-(1-pyrrolidinyl)ethyl]-1H-benzimidazoledihydrochloride]"
13,≤ 0.01 µM,"Cc1cc(C(=O)O)oc1Cc1cc(Cl)ccc1OCC(C)C [Example 14, Sodium 5-({5-chloro-2-[(2-methylpropyl)oxy]phenyl}methyl)-4-methyl-2-furancarboxylate]"
14,< 1 µM,"CN(C)Cc1ccc2nc(-c3ccc(Cc4cc(Cl)ccc4OCc4ccccc4)o3)[nH]c2c1 [Example 138, ({2-[5-({5-Chloro-2-[(phenylmethyl)oxy]phenyl}methyl)-2-furanyl]-1H-benzimidazol-5-yl}methyl)dimethylamine dihydrochloride]"
15,< 1 µM,"CC(C)COc1ccc(Cl)cc1Cc1ccc(-c2nc3cc(Cl)ccc3[nH]2)o1 [Example 123, 5-Chloro-2-[5-({5-chloro-2-[(2-methylpropyl)oxy]phenyl}-methyl)-2-furanyl]-1H-benzimidazole]"
16,< 1 µM,"O=C(Nc1c(F)cccc1F)c1ccc(Cc2cc(Cl)ccc2OCc2ccc(F)cc2)o1 [Example 82, 5-[(5-Chloro-2-{[(4-fluorophenyl)methyl]oxy}-phenyl)methyl]-N-(2,6-difluorophenyl)-2-furancarboxamide]"

row,Ki,Compound
1,< 1 µM,"CC(C)COc1ccc(Cl)cc1Cc1ccc(-c2nc3ccc(CNC(C)C)cc3[nH]2)o1 [Example 155, N-({2-[5-({5-Chloro-2-[(2-methylpropyl)oxy]-phenyl}methyl)-2-furanyl]-1H-benzimidazol-5-yl}methyl)-2-propanaminedihydrochloride]"
2,< 1 µM,"Cc1cc(COc2ccc(Cl)cc2Cc2ccc(C(=O)O)o2)on1 [Example 9, Sodium 5-[(5-chloro-2-{[(3-methyl-5-isoxazolyl)methyl]oxy}phenyl)methyl]-2-furancarboxylate]"
3,< 1 µM,"O=C(Nc1c(F)cccc1F)c1ccc(Cc2cc(Cl)ccc2OCC2CC2)o1 [Example 94, 5-({5-Chloro-2-[(cyclopropylmethyl)oxy]-phenyl}methyl)-N-(2,6-difluorophenyl)-2-furancarboxamide]"
4,≤ 0.01 µM,"O=C(NCc1ccccn1)c1ccc(Cc2cc(Cl)ccc2OCc2ccccc2)o1 [Example 53, 5-({5-Chloro-2-[(phenylmethyl)oxy]phenyl}methyl)-N-(2-pyridinylmethyl)-2-furancarboxamide]"
5,< 1 µM,"O=C(Nc1c(F)cccc1F)c1ccc(Cc2cc(Cl)ccc2OCc2cccnc2)o1 [Example 92, 5-({5-Chloro-2-[(3-pyridinylmethyl)oxy]phenyl}methyl)-N-(2,6-difluorophenyl)-2-furancarboxamide]"
6,< 1 µM,"CC(C)COc1ccc(Cl)cc1Cc1ccc(-c2nc3cc(CCN(C)C)ccc3[nH]2)o1 [Example 163, (2-{2-[5-({5-Chloro-2-[(2-methylpropyl)oxy]-phenyl}methyl)-2-furanyl]-1H-benzimidazol-5-yl}ethyl)dimethylaminedihydrochloride]"
7,< 1 µM,"Clc1ccc(OCc2ccccc2)c(Cc2ccc(-c3nc4nccnc4[nH]3)o2)c1 [Example 102, 2-[5-({5-Chloro-2-[(phenylmethyl)oxy]phenyl}methyl)-2-furanyl]-1H-imidazo[4,5-b]pyrazine]"
8,< 1 µM,"Cc1cccc(Cl)c1NC(=O)c1ccc(Cc2cc(Cl)ccc2OCc2ccccc2)o1 [Example 74, N-(2-Chloro-6-methylphenyl)-5-({5-chloro-2-[(phenylmethyl)oxy]-phenyl}methyl)-2-furancarboxamide]"
9,≤ 0.01 µM,"O=C(O)c1ccc(Cc2cc(Cl)ccc2OCc2ccncc2)o1 [Example 28, Sodium 5-({5-chloro-2-[(4-pyridinylmethyl)oxy]phenyl}methyl)-2-furancarboxylate]"
10,< 1 µM,"CC(C)COc1ccc(Cl)cc1Cc1ccc(C(=O)NCc2cccc(F)c2F)o1 [Example 44, 5-({5-Chloro-2-[(2-methylpropyl)oxy]phenyl}methyl)-N-[(2,3-difluorophenyl)methyl]-2-furancarboxamide]"
11,< 1 µM,"CN1CCN(c2ccc3[nH]c(-c4ccc(Cc5cc(Cl)ccc5OCc5ccccc5)o4)nc3c2)CC1 [Example 103, 2-[5-({5-Chloro-2-[(phenylmethyl)oxy]phenyl}methyl)-2-furanyl]-5-(4-methyl-1-piperazinyl)-1H-benzimidazolehydrochloride]"
12,≤ 0.01 µM,"O=C(O)c1ccc(Cc2cc(Cl)ccc2OCc2cc(F)c(F)c(F)c2)o1 [Example 24, Sodium 5-[(5-chloro-2-{[(3,4,5-trifluorophenyl)methyl]oxy}phenyl)methyl]-2-furancarboxylate]"
13,< 1 µM,"CN(C)c1ccc(CNC(=O)c2ccc(Cc3cc(Cl)ccc3OCc3ccccc3)o2)cc1 [Example 54, 5-({5-Chloro-2-[(phenylmethyl)oxy]phenyl}methyl)-N-{[4-(dimethylamino)phenyl]methyl}-2-furancarboxamide]"
14,< 1 µM,CC(C)COc1ccc(Cl)cc1Cc1ccc(C(=O)NCc2ccc(F)cc2)o1 [Example 37]
15,< 1 µM,"Clc1ccc(OCc2ccccc2)c(Cc2ccc(-c3nc4cnccc4[nH]3)o2)c1 [Example 120, 2-[5-({5-Chloro-2-[(phenylmethyl)oxy]-phenyl}methyl)-2-furanyl]-1H-imidazo[4,5-c]pyridine hydrochloride]"
